Assay results taken from the NIST ThermoML archive (doi:10.1016/j.jct.2007.07.005).

Test: xn = mol fraction of the nth substance listed
Conditions: Fluid (supercritical or subcritical phases), vibrating tube

CCCCCO [pentan-1-ol] + O=C=O
Conditions	mass density [kg/m3]
332.93 K, 17012 kPa, x2 = 0.3624	816.44
332.93 K, 17014 kPa, x2 = 0.4651	821.68
332.93 K, 17021 kPa, x2 = 0.8067	808.04
332.93 K, 17022 kPa, x2 = 0.9757	707.96
332.93 K, 18010 kPa, x2 = 0.3624	817.48
332.93 K, 18021 kPa, x2 = 0.8067	813.35
332.93 K, 18021 kPa, x2 = 0.9757	724.84
332.93 K, 18040 kPa, x2 = 0.4651	823.21
332.93 K, 19008 kPa, x2 = 0.9757	739.5
332.93 K, 19011 kPa, x2 = 0.8067	818.27
332.93 K, 19015 kPa, x2 = 0.4651	824.63
332.93 K, 19032 kPa, x2 = 0.3624	818.5
332.93 K, 19997 kPa, x2 = 0.3624	819.44
332.93 K, 20022 kPa, x2 = 0.8067	822.95
332.93 K, 20026 kPa, x2 = 0.4651	826.05
332.93 K, 20041 kPa, x2 = 0.9757	753.18
332.93 K, 21019 kPa, x2 = 0.4651	827.43
332.93 K, 21021 kPa, x2 = 0.9757	764.86
332.93 K, 21024 kPa, x2 = 0.3624	820.43
332.93 K, 21029 kPa, x2 = 0.8067	827.4
332.93 K, 21989 kPa, x2 = 0.8067	831.41
332.93 K, 21997 kPa, x2 = 0.4651	828.79
332.93 K, 22013 kPa, x2 = 0.3624	821.46
332.93 K, 22013 kPa, x2 = 0.9757	775.63
332.93 K, 23008 kPa, x2 = 0.8067	835.47
332.93 K, 23021 kPa, x2 = 0.3624	822.42
332.93 K, 23031 kPa, x2 = 0.4651	830.22
332.93 K, 23997 kPa, x2 = 0.3624	823.36
332.93 K, 24024 kPa, x2 = 0.4651	831.62
332.93 K, 24893 kPa, x2 = 0.3624	824.24
332.95 K, 13016 kPa, x2 = 0.8573	754.58
332.95 K, 13026 kPa, x2 = 0.9216	704.11
332.95 K, 14021 kPa, x2 = 0.9216	723.65
332.95 K, 14042 kPa, x2 = 0.8573	766.56
332.95 K, 15016 kPa, x2 = 0.9216	739.26
332.95 K, 15028 kPa, x2 = 0.8573	776.2
332.95 K, 15984 kPa, x2 = 0.9216	752.12
332.95 K, 16013 kPa, x2 = 0.8573	784.6
332.95 K, 17014 kPa, x2 = 0.8573	792.22
332.95 K, 17039 kPa, x2 = 0.9216	764.27
332.95 K, 18011 kPa, x2 = 0.8573	799.17
332.95 K, 18019 kPa, x2 = 0.9216	774.24
332.95 K, 19005 kPa, x2 = 0.9216	783.37
332.95 K, 19027 kPa, x2 = 0.8573	805.67
332.95 K, 20006 kPa, x2 = 0.8573	811.5
332.95 K, 20008 kPa, x2 = 0.9216	791.89
332.95 K, 20996 kPa, x2 = 0.8573	817.04
332.95 K, 21037 kPa, x2 = 0.9216	799.89
332.95 K, 21691 kPa, x2 = 0.9216	804.69
332.95 K, 22056 kPa, x2 = 0.8573	822.62
332.95 K, 23032 kPa, x2 = 0.8573	827.46
332.95 K, 24010 kPa, x2 = 0.8573	832.11
332.96 K, 3007 kPa, x2 = 0.0816	789.68
332.96 K, 4028 kPa, x2 = 0.0816	790.6
332.96 K, 4991 kPa, x2 = 0.0816	791.47
332.96 K, 5998 kPa, x2 = 0.0816	792.36
332.96 K, 7025 kPa, x2 = 0.0816	793.27
332.96 K, 7995 kPa, x2 = 0.0816	794.13
332.96 K, 9031 kPa, x2 = 0.0816	795.01
332.96 K, 10005 kPa, x2 = 0.0816	795.83
332.96 K, 11008 kPa, x2 = 0.0816	796.67
332.96 K, 12026 kPa, x2 = 0.0816	797.53
